Results published in publication PMC9271048, “Probing strigolactone perception mechanisms with rationally designed small-molecule agonists stimulating germination of root parasitic weeds” (Nature Communications, 2022).

What follows are compounds tested on PaKAI2s (5 KAI2 protein homologs in P. aegyptiaca) (assay: YLG-based competition assay on KAI2 protein homologs of P. aegyptiaca). Details: KAI2C; YLG competition; Supplementary Fig. 27; read-out: IC50, replicate 1.
Type: biochemical, Phelipanche aegyptiaca
Text: In P. aegyptiaca, 5 KAI2s have been proposed as the SL receptors for the regulation of seed germination. […] The high sequence similarity may explain the consistency of these compounds in inducing germination in both S. hermonthica and P. aegyptiaca.
(§1) The excitation and emission wavelengths of YLG are 480 and 520 nm, respectively. We used a fluorescence spectrophotometer (CARY Eclipse) to detect the fluorescence intensity change of YLG during the enzymatic hydrolysis assay process. All the testing compounds and YLG were dissolved in DMSO and prepared as stock solutions just before use. […] The changes of fluorescence at 520 nm of each well were recorded every 1 min for 30 min. Using the reaction mixture without adding enzyme and tested compounds as the background control. After subtracting the background hydrolysis, a linear fluorescence increase in 8 min was used for further inspection. The IC50 values were determined via fitting relative inhibition percentages with the varying concentrations of compounds in Microsoft Excel.
Supplementary Fig. 27. Binding of compounds 4a, (R)- and (S)-4a, and 4g-i to the HTL proteins in S. hermonthica and KAI2 protein homologs in P. aegyptiaca. In the competitive inhibitory activity assay, YLG (3 µM) was used as the fluorogenic substrate. Error bar indicates SD (n = 3 biologically independent experiments).
(1 picture or pasted object on this page, not shown here)
Work on `CC1=CC(OC(=O)N2CCN(C(=O)COc3ccc(Br)cc3C)CC2)OC1=O` (stereo not drawn) [4a] yielded an IC50 of 10.9 µM.

Same assay, conditions: KAI2C; YLG competition; Supplementary Fig. 27; read-out: IC50, replicate 2
In the case of `CC1=CC(OC(=O)N2CCN(C(=O)COc3ccc(Br)cc3C)CC2)OC1=O` (stereo not drawn) [4a], the IC50 is reported as 13.8 µM.

Same assay, conditions: KAI2C; YLG competition; Supplementary Fig. 27; read-out: IC50, replicate 3
In the case of `CC1=CC(OC(=O)N2CCN(C(=O)COc3ccc(Br)cc3C)CC2)OC1=O` (stereo not drawn) [4a], the IC50 is reported as 21.5 µM.

Same assay, conditions: KAI2C; average of 3 replicates; Supplementary Fig. 27; read-out: IC50, average
In the case of `CC1=CC(OC(=O)N2CCN(C(=O)COc3ccc(Br)cc3C)CC2)OC1=O` (stereo not drawn) [4a], the IC50 is reported as 15.4 µM.

Same assay, conditions: KAI2d1; YLG competition; Supplementary Fig. 27; read-out: IC50, replicate 1
`CC1=CC(OC(=O)N2CCN(C(=O)COc3ccc(Br)cc3C)CC2)OC1=O` (stereo not drawn) [4a] gave an IC50 of 33.3 µM.

Same assay, conditions: KAI2d1; YLG competition; Supplementary Fig. 27; read-out: IC50, replicate 2
`CC1=CC(OC(=O)N2CCN(C(=O)COc3ccc(Br)cc3C)CC2)OC1=O` (stereo not drawn) [4a] gave an IC50 of 33.3 µM.

Same assay, conditions: KAI2d1; YLG competition; Supplementary Fig. 27; read-out: IC50, replicate 3
With `CC1=CC(OC(=O)N2CCN(C(=O)COc3ccc(Br)cc3C)CC2)OC1=O` (stereo not drawn) [4a] the IC50 was 24.8 µM.

Same assay, conditions: KAI2d1; average of 3 replicates; Supplementary Fig. 27; read-out: IC50, average
Compound `CC1=CC(OC(=O)N2CCN(C(=O)COc3ccc(Br)cc3C)CC2)OC1=O` (stereo not drawn) [4a] has an IC50 of 30.5 µM.

Same assay, conditions: KAI2d2; YLG competition; Supplementary Fig. 27; read-out: IC50, replicate 1
`CC1=CC(OC(=O)N2CCN(C(=O)COc3ccc(Br)cc3C)CC2)OC1=O` (stereo not drawn) [4a] showed an IC50 of 40.8 µM.

Same assay, conditions: KAI2d2; YLG competition; Supplementary Fig. 27; read-out: IC50, replicate 2
Compound `CC1=CC(OC(=O)N2CCN(C(=O)COc3ccc(Br)cc3C)CC2)OC1=O` (stereo not drawn) [4a] has an IC50 of 46.6 µM.

Same assay, conditions: KAI2d2; YLG competition; Supplementary Fig. 27; read-out: IC50, replicate 3
Work on `CC1=CC(OC(=O)N2CCN(C(=O)COc3ccc(Br)cc3C)CC2)OC1=O` (stereo not drawn) [4a] yielded an IC50 of 48.6 µM.

Same assay, conditions: KAI2d2; average of 3 replicates; Supplementary Fig. 27; read-out: IC50, average
`CC1=CC(OC(=O)N2CCN(C(=O)COc3ccc(Br)cc3C)CC2)OC1=O` (stereo not drawn) [4a] was tested, and the IC50 was 45.3 µM.

Same assay, conditions: KAI2d3; YLG competition; Supplementary Fig. 27; read-out: IC50, replicate 1
`CC1=CC(OC(=O)N2CCN(C(=O)COc3ccc(Br)cc3C)CC2)OC1=O` (stereo not drawn) [4a] gave an IC50 of 30.6 µM.

Same assay, conditions: KAI2d3; YLG competition; Supplementary Fig. 27; read-out: IC50, replicate 2
`CC1=CC(OC(=O)N2CCN(C(=O)COc3ccc(Br)cc3C)CC2)OC1=O` (stereo not drawn) [4a] showed an IC50 of 26.4 µM.

Same assay, conditions: KAI2d3; YLG competition; Supplementary Fig. 27; read-out: IC50, replicate 3
`CC1=CC(OC(=O)N2CCN(C(=O)COc3ccc(Br)cc3C)CC2)OC1=O` (stereo not drawn) [4a] gave an IC50 of 27.7 µM.

Same assay, conditions: KAI2d3; average of 3 replicates; Supplementary Fig. 27; read-out: IC50, average
`CC1=CC(OC(=O)N2CCN(C(=O)COc3ccc(Br)cc3C)CC2)OC1=O` (stereo not drawn) [4a] showed an IC50 of 28.2 µM.

Same assay, conditions: KAI2d4; YLG competition; Supplementary Fig. 27; read-out: IC50, replicate 1
For `CC1=CC(OC(=O)N2CCN(C(=O)COc3ccc(Br)cc3C)CC2)OC1=O` (stereo not drawn) [4a], the IC50 was 17.4 µM.

Same assay, conditions: KAI2d4; YLG competition; Supplementary Fig. 27; read-out: IC50, replicate 2
`CC1=CC(OC(=O)N2CCN(C(=O)COc3ccc(Br)cc3C)CC2)OC1=O` (stereo not drawn) [4a] showed an IC50 of 17.7 µM.

Same assay, conditions: KAI2d4; YLG competition; Supplementary Fig. 27; read-out: IC50, replicate 3
Work on `CC1=CC(OC(=O)N2CCN(C(=O)COc3ccc(Br)cc3C)CC2)OC1=O` (stereo not drawn) [4a] yielded an IC50 of 26.3 µM.

Same assay, conditions: KAI2d4; average of 3 replicates; Supplementary Fig. 27; read-out: IC50, average
`CC1=CC(OC(=O)N2CCN(C(=O)COc3ccc(Br)cc3C)CC2)OC1=O` (stereo not drawn) [4a] gave an IC50 of 20.5 µM.

These compounds were tested against T1, ShHTL7 (Striga hermonthica, UniProt A0A0M3PNA2) (assay: Competitive inhibition of ShHTL7 with Yoshimulactone Green (YLG) as substrate). Details: ShHTL7; YLG competition; Supplementary Fig. 27; read-out: IC50, replicate 1.
T1 sequence (A0A0M3PNA2 entry or part of it): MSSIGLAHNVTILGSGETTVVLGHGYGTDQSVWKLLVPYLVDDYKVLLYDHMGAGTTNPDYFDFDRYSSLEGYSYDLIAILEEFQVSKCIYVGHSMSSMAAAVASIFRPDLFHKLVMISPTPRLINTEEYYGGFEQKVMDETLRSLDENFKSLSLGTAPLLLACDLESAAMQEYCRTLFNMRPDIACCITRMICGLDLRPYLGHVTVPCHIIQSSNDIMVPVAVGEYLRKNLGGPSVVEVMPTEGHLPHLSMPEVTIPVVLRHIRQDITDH
Type: biochemical
Procedure: Based on the structural feature of the lead compound 2h, we selected three regions to perform further modification (Supplementary Fig. 6), to try to further improve bioactivity. Insertion of a carbonyl group between the bicyclo[2.2.1]hept-5-en-2-yl group and the piperazine ring was detrimental to binding affinity (Supplementary Fig. 6, region A). Removal of an oxygen atom in region B was found unfavorable to binding affinity as well. Therefore, we focused on modifying the benzene ring (region C) for 2h. A series of compounds with different groups at region C was synthesized (Supplementary Scheme 1). […] As SPR just measures the binding ability, another independent assay by using Yoshimulactone Green (YLG) as the fluorescent substrate was performed to determine the half-maximal inhibitory concentration (IC50) of these compounds against ShHTL7[22].
as §1
Compound `CC1=CC(OC(=O)N2CCN(C(=O)COc3ccc(Br)cc3C)CC2)OC1=O` (stereo not drawn) [4a] has an IC50 of 0.953 µM.

Same assay, conditions: ShHTL7; YLG competition; Supplementary Fig. 27; read-out: IC50, replicate 2
Compound `CC1=CC(OC(=O)N2CCN(C(=O)COc3ccc(Br)cc3C)CC2)OC1=O` (stereo not drawn) [4a] has an IC50 of 1.35 µM.

Same assay, conditions: ShHTL7; YLG competition; Supplementary Fig. 27; read-out: IC50, replicate 3
`CC1=CC(OC(=O)N2CCN(C(=O)COc3ccc(Br)cc3C)CC2)OC1=O` (stereo not drawn) [4a] was tested, and the IC50 was 1.32 µM.

Same assay, conditions: YLG as substrate; text and Fig. 2; read-out: IC50, competitive ShHTL7 inhibition (YLG assay)
`CC1=CC(OC(=O)N2CCN(C(=O)COc3ccc(Br)cc3C)CC2)OC1=O` (stereo not drawn) [4a] showed an IC50 of 1.21 ± 0.22 µM.

Same assay, conditions: wild-type ShHTL7; average of 3; source data of Fig. 2a,b, Supplementary Figs. 8a, 9a, 20b; read-out: IC50, competitive ShHTL7 inhibition (YLG), source data average
Work on `CC1=CC(OC(=O)N2CCN(C(=O)COc3ccc(Br)cc3C)CC2)OC1=O` (stereo not drawn) [4a] yielded an IC50 of 1.21 µM.

These compounds were tested against T2, AtD14 (Arabidopsis thaliana, UniProt Q9SQR3) (assay: Competitive inhibition of AtD14 with YLG as substrate). Details: YLG as the substrate; read-out: Competitive AtD14 inhibitory activity IC50.
T2 construct: His tag; made in house; host or cells: E. coli BL21
T2 sequence (Q9SQR3 1-267): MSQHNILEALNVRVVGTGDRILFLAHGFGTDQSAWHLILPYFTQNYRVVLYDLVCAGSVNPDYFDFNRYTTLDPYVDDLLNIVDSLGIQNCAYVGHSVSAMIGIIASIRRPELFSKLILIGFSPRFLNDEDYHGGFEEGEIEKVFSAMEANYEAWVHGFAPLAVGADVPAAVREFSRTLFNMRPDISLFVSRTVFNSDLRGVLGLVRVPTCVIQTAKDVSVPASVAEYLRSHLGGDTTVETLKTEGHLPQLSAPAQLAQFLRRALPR
Type: biochemical
Procedure: as §1
With `CC1=CC(OC(=O)N2CCN(C(=O)COc3ccc(Br)cc3C)CC2)OC1=O` (stereo not drawn) [4a] the IC50 was > 100 µM.

These compounds were tested against T1, ShHTL7 (assay: biochemical). Details: not given.
Type: binding
Procedure: We used a sensitive, high-throughput Surface plasmon resonance (SPR) method to examine the binding affinities of the 51 candidates to the recombinant ShHTL7 protein, which was immobilized on the CM5 sensor chip. rac-GR24 was used as a positive control.
The interactions of small molecules with recombinant ShHTL7 were evaluated using the Biacore T200 system (GE Healthcare, USA) at 25 °C[47]. The purified ShHTL7 protein was immobilized on a CM5 sensor chip using the standard amine coupling procedure. […] PBS-P (10 mM phosphate buffer, 2.7 mM KCl, 137 mM NaCl, 0.05% Surfactant P20) containing 0.5% DMSO was used as the running buffer. For the screening experiments, candidates with different structures at 50 μM in the running buffer were injected individually at a flow rate of 30 μL min^−1. For binding affinity studies, compounds with different concentrations in running buffer were used. During the experiments, both the contact and dissociation times were set as 1 min. Data analysis was performed using the Biacore Evaluation Software (T200 Version 2.0). The affinity values (KD) were obtained by the kinetics analysis or the steady-state affinity method.
Work on `CC1=CC(OC(=O)N2CCN(C(=O)COc3ccc(Br)cc3C)CC2)OC1=O` (stereo not drawn) [4a] yielded a Kd of 2.07 ± 0.51 µM.
